Results: publication PMC2680961, “Homologous desensitization of signalling by the alpha (α) isoform of the human thromboxane A2 receptor: A specific role for nitric oxide signalling” (Biochimica et Biophysica Acta, 2007)

Assays:
[1] = biological target: T1, TP^Δ328 (Homo sapiens, UniProt P21731); assay: Intracellular calcium mobilization, HEK.TP^Δ328 cells; type: cell-based; conditions: for Δ[Ca2+]i, U46619-induced: HEK.TP^Δ328
T1 construct: expressed in transfected cells
T1 sequence (P21731 1-328): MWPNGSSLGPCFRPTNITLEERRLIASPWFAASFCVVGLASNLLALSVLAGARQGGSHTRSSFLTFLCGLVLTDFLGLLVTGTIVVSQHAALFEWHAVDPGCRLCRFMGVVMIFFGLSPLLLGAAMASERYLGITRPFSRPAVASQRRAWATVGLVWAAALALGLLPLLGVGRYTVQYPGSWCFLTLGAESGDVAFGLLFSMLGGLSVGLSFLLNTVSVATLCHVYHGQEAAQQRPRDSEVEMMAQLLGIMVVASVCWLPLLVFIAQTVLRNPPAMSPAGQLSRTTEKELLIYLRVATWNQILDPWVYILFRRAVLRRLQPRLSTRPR
Description: Measurement of intracellular calcium mobilization ([Ca^2+]i) in FURA2/AM preloaded HEK 293 cell lines (2 × 10^6 cells/dish), each transiently co-transfected with pADVA (10 μg), and pCMV:Gαq (25 μg), was carried out as previously described. To investigate the effect of GRK2/βARK1 on TP-mediated [Ca^2+]i mobilization, HEK.TPα or HEK.TPβ cells (2 × 10^6 cells/dish) were co-transfected with pADVA (10 μg), pCMV:Gαq (25 μg) along with pRK5:βARK1^495–689 (25 μg), encoding a dominant negative form of GRK2/βARK1[39]. Approximately 48 h post-transfection, cells were harvested by scraping, washed twice in ice-cold PBS and resuspended in HBSSHB (modified Ca^2+/Mg^2+-free Hank's buffered salt solution, containing […], pH 7.67, 0.1% bovine serum albumin (BSA)) buffer at 10^7 cells/ml and incubated in the dark with 5 μM FURA2/AM for 45 min at 37 °C. Cells were collected by centrifugation (900×g, 5 min), washed once in an equal volume of HBSSHB, and were finally resuspended in HBSSHB buffer at 10^7 cells/ml and kept at room temperature in the dark for 40 min. For each measurement of [Ca^2+]i mobilization, aliquots of cells were diluted to 0.825 × 10^6 cells/ml in HBSSHB, 1 mM CaCl2 and FURA2 fluorescence was recorded (2 ml aliquots of cells) at 37^ °C with gentle stirring with a Perkin Elmer-Cetus LS50-B spectrofluorometer at excitation wavelengths of 340 nm and 380 nm and emission wavelength of 510 nm, respectively.
Cells were stimulated with the TP agonist U46619 (1 μM) and changes in [Ca^2+]i mobilization were monitored as a function of time. To assess agonist-mediated homologous desensitization, cells (0.825 × 10^6 cells/ml; 2 ml per assay) were stimulated with 1 μM U46619 (Primary stimulation) or, as a control, with the vehicle for 4 min; thereafter, cells were collected by centrifugation (900×g, 5 min); were washed twice in 2 ml HBSSHB, 1 mM CaCl2; and finally resuspended in 2 ml HBSSHB,1 mM CaCl2 and were left to recover over various time intervals (ranging from 0 to 60 min); thereafter, cells re-stimulated with 1 μM U46619 (Secondary stimulation) and changes in [Ca^2+]i mobilization were monitored as a function of time. To assess the role of protein kinase (PK) A, PKC or PKG on U46619-mediated desensitization of TPα signalling, cells were pre-incubated with the PKA inhibitor H-89 (10 μM), the PKC inhibitor GF 109203X (50 nM) or the PKG inhibitor KT 5823 (50 nM), for 15 min and respective kinase inhibitors were maintained throughout the primary/secondary U46619-stimulations and during the washes.
The vehicle had no effect on U46619-mediated [Ca^2+]i mobilization. Calibration of the signal was performed in each sample by adding 0.2% Triton X-100 to obtain the maximal fluorescence ratio (Rmax) and then 1 mM EGTA to obtain the minimal fluorescence ratio (Rmin). The ratio of the fluorescence at 340 nm to that at 380 nm is a measure of [Ca^2+]i, which assumes a Kd of 225 nM Ca^2+ for FURA2/AM. The results presented in the figures are representative data from at least three or four independent experiments and are plotted as changes in Ca^2+i mobilized (Δ[Ca^2+]i (nM)) as a function of time (s) upon ligand stimulation. Changes in [Ca^2+]i mobilization were determined by measuring peak rises in [Ca^2+]i mobilized (Δ[Ca^2+]i) and were calculated as mean changes in Δ[Ca^2+]i ± S.E.M. (nM).

[2] = biological target: T2, TPα^S331,T337A (Homo sapiens, UniProt P21731, S331A/T337A); assay: Agonist-mediated TP phosphorylation in whole cells, HEK.TPα^S331,T337A; type: cell-based; conditions: 1 μM U46619 10 min
T2 construct: expressed in transfected cells
T2 sequence (P21731 1-343 S331A/T337A): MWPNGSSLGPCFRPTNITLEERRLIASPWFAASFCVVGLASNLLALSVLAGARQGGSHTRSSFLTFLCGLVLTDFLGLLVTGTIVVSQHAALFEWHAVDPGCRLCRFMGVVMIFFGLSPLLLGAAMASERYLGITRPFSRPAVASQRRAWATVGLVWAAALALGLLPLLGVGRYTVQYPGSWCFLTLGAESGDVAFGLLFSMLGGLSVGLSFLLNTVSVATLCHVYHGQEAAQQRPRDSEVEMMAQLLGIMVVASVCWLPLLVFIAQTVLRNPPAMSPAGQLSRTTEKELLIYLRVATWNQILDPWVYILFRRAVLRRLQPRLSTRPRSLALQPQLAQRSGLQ
Description: Agonist-mediated TP phosphorylation in whole cells (1.8–2 × 10^6 cells/10 cm dish) was performed essentially as previously described. Briefly, cells were transiently co-transfected with pADVA (10 μg), pCMV:Gαq (25 μg) plus pcDNA:βArrestin2 (25 μg) approximately 48 h prior to labelling. Thereafter, cells were washed once in phosphate-free DMEM, 10% dialysed FBS and were metabolically labelled for 60 min in the same medium (2 ml/10 cm dish) containing 100 μCi/ml [^32P] orthophosphate (8000–9000 Ci/mmol) at 37 °C, 5% CO2. Where appropriate, the PKG kinase inhibitor KT 5823 (50 nM) or its vehicle was added during the labelling period. Thereafter, U46619 (1 μM) or an equivalent volume of vehicle (0.01% ethanol in HBS; 20 μl) were added and cells were incubated for 10 min at 37 °C, 5% CO2. Reactions were terminated by transferring the dishes to ice and aspirating the labelled medium and HA-epitope tagged TP receptors were processed and immunoprecipitated using the anti-HA 101R antibody as previously described. Electroblots were then exposed to Xomat XAR (Kodak) film to detect ^32P-labelled proteins. Thereafter, blots were subject to phosphorimage analysis, and the intensities of agonist-induced phosphorylation were expressed in arbitrary units relative to basal (vehicle-stimulated) levels. […]

- Δ[Ca2+]i, U46619-induced ([1]; primary stimulation, 1 μM U46619 4 min): 180 ± 5.6 nM
- Δ[Ca2+]i, U46619-induced ([1]; secondary 1 μM U46619 at 15 min): 158 ± 3.8 nM
- Δ[Ca2+]i, U46619-induced ([1]; secondary 1 μM U46619 at 60 min): 178 ± 6.7 nM
- secondary U46619 [Ca2+]i response relative to primary response ([1]; TP^Δ328, restimulation at 15 min): ~80%
SMILES: CCCCC[C@H](O)/C=C/[C@@H]1[C@@H](C/C=C\CCCC(=O)O)[C@H]2CO[C@@H]1C2 [U46619]
- U46619-induced phosphorylation of TPα^S331,T337A [2]: failed to undergo significant U46619-induced phosphorylation above basal levels
